Format in all cases: physicochemical
Data set [1] can be described thus: Evaluation of heat-resistance by TG-DTA. The protocol: Compounds Nos. 1, 2, 5 and 46 and Comparative Compounds Nos. 1 and 2 obtained above were analyzed by TG-DTA to thereby measure the melting points and temperatures at 10% weight loss. The results are shown in [Table 4].
Data set [2] can be described thus: Evaluation of absorption wavelength property in CHCl3 solution. The conditions noted are these: maximum absorption wavelength in CHCl3 solution. The protocol: (§1) Bis(4-formylphenyl)phenylamine (0.90 g, 3 mmol), ethyl cyanoacetate (0.75 g, 6.6 mmol) and ethanol (1.26 g) were added to a reaction container and heated to 50° C. under stirring. Triethylamine (0.06 g, 0.6 mmol) was then added dropwise, a reaction was conducted at 50° C. for 2 hours, and the reactant was cooled to room temperature. The reaction solution was subjected to liquid separation with ethyl acetate/water, the organic layer was dried under a reduced pressure, and the precipitated solid was washed with hexane to thereby give 1.13 g (yield 95.2%) of a yellow powder. That the obtained yellow powder was the intended substance was confirmed by ^1H-NMR and IR. Furthermore, the solubility and absorption wavelength properties (absorption wavelength λmax and absorption coefficient ∈) of compound No. 1 were measured. PGMEA was added dropwise to 0.1 g of the compound under stirring, and the solubility was defined as the concentration at the time when PGMEA had completely dissolved the compound. Furthermore, the absorption wavelength properties were measured in a CHCl3 solution.
The maximum absorption wavelengths of Compounds Nos. 1, 2, 5 and 46 and Comparative Compounds Nos. 1 and 2 obtained above were each evaluated in a CHCl3 solution. The results are shown in [Table 5].

Data set [3] in a line: Evaluation of heat-resistance by calcination of coating of colored alkali-developable photosensitive composition. To be noted: for relative intensity 230° C., 30 min: absorbance of coating at λmax after calcination 230° C.×30 min, before calcination (after exposure to light) = 100; for λmax: coating of colored alkali-developable photosensitive composition on glass substrate. The protocol: No. 3 obtained above, and comparative colored alkali-developable photosensitive composition No. 1 were each applied to a glass substrate under conditions of 410 rpm×7 sec, and dried on a hot plate (90° C., 90 sec). The obtained coating was exposed to light by a ultrahigh pressure mercury lamp (150 mJ/cm^2). The coating after the exposure to light was calcined under conditions of 230° C.×30 min. The absorbance of the coating before the calcination (after the exposure to light) and the absorbance of the coating after the calcination at the maximum absorption wavelength (λmax) of the compound (dye) as used were measured, and considering the absorption of the coating before the calcination (after the exposure to light) as 100, the absorbance of the coating after the calcination closer to 100 was evaluated to give higher heat-resistance. The results are shown in [Table 6].

The nature of the next data set: Solubility in PGMEA. To be noted: PGMEA added dropwise to 0.1 g of compound; concentration when completely dissolved. The protocol:
as §1

Each structure is given as a SMILES string.

Turning to `CCOC(=O)/C(C#N)=C/c1ccc(N(CC)CC)cc1` [Comparative Compound No. 1, reference compound], the “temperatures at 10% weight loss” value in data set [1] came out at 259 °C. The λmax in data set [2] and in data set [3] was 430 nm throughout. Further, the “relative intensity 230° C., 30 min” value in data set [3] came to 12.5.
Take `CCOC(=O)/C(C#N)=C/c1ccc(N(c2ccccc2)c2ccc(/C=C(\C#N)C(=O)OCC)cc2)cc1` [Compound No. 1]: in the data set “Solubility in PGMEA”, the solubility stood at 4.6 wt %. Moreover, the “temperatures at 10% weight loss” value in data set [1] worked out at 355 °C. For the same molecule, the λmax in data set [2] was 460 nm. Moreover, in data set [3], the “relative intensity 230° C., 30 min” value was found to be 94.9 and the λmax was found to be 458 nm.
For the molecule `CCOC(=O)/C(C#N)=C/c1ccc(N2CCN(c3ccc(/C=C(\C#N)C(=O)OCC)cc3)CC2)cc1` [Compound No. 5], the solubility in “Solubility in PGMEA” is listed as 0.1 wt %. Also, the “temperatures at 10% weight loss” value in data set [1] amounted to 345 °C. In data set [2], this molecule returned a λmax of 423 nm.
In the data set “Solubility in PGMEA”, `CCOC(=O)/C(C#N)=C/c1ccc(N(c2ccc(/C=C(\C#N)C(=O)OCC)cc2)c2ccc(/C=C(\C#N)C(=O)OCC)cc2)cc1` [Compound No. 2] came in with a solubility of 3.5 wt %. In addition, in data set [1], the “temperatures at 10% weight loss” value is 370 °C. In addition, the λmax in data set [2] and in data set [3] was 452 nm throughout. Further, in data set [3], the “relative intensity 230° C., 30 min” value amounted to 98.5.
Turning to `CCOC(=O)/C(C#N)=C/c1ccc(N(CC)CCCCCCN(CC)c2ccc(/C=C(\C#N)C(=O)OCC)cc2)cc1` [Compound No. 46], the solubility in the data set “Solubility in PGMEA” is reported as 0.5 wt %. Also, the “temperatures at 10% weight loss” value in data set [1] was found to be 346 °C. Further, the λmax in data set [2] was 430 nm; in data set [3] it was 436 nm. Also, the “relative intensity 230° C., 30 min” value in data set [3] is listed as 99.9.
Take `CCOCCOC(=O)/C(C#N)=C/c1ccc(N(CC)CC)cc1` [Comparative Compound No. 2, reference compound]: the “temperatures at 10% weight loss” value in data set [1] came to 252 °C. The λmax in data set [2] is recorded as 432 nm.

Source of the values: patent publication US20130296455A1, “NOVEL COMPOUND, DYE AND COLORED PHOTOSENSITIVE COMPOSITION” (ADEKA CORPORATION, priority 2011, published 2013).
